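These data come from cells grown in 96-well plates and exposed to compound for 48 hours at five concentrations. At the TGI there is no net growth.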
Experiments:
Test in all cases: inhibition of tumour cell growth, NCI panel, 48 h
UACC-257 melanoma = tested on: UACC-257 melanoma
HT29 colon = tested on: HT29 colon
SN12C renal = tested on: SN12C renal
EKVX NSCLC = tested on: EKVX NSCLC
SK-MEL-2 melanoma = tested on: SK-MEL-2 melanoma
CAKI-1 renal = tested on: CAKI-1 renal
HCT-15 colon = tested on: HCT-15 colon
ACHN renal = tested on: ACHN renal
SF-268 CNS = tested on: SF-268 CNS
A549 NSCLC = tested on: A549 NSCLC
MCF7 breast = tested on: MCF7 breast
U251 CNS = tested on: U251 CNS
BT-549 breast = tested on: BT-549 breast
MOLT-4 leukemia = tested on: MOLT-4 leukemia
HOP-62 NSCLC = tested on: HOP-62 NSCLC
M14 melanoma = tested on: M14 melanoma
SNB-19 CNS = tested on: SNB-19 CNS
SF-539 CNS = tested on: SF-539 CNS
SW-620 colon = tested on: SW-620 colon
MDA-N = tested on: MDA-N
NCI-H460 lung = tested on: NCI-H460 lung
LOX IMVI melanoma = tested on: LOX IMVI melanoma
MDA-MB-435 = tested on: MDA-MB-435
HCC-2998 colon = tested on: HCC-2998 colon
OVCAR-5 ovarian = tested on: OVCAR-5 ovarian
OVCAR-8 ovarian = tested on: OVCAR-8 ovarian
UO-31 renal = tested on: UO-31 renal
NCI-H23 lung = tested on: NCI-H23 lung
SF-295 CNS = tested on: SF-295 CNS
NCI/ADR-RES ovarian = tested on: NCI/ADR-RES ovarian
OVCAR-3 ovarian = tested on: OVCAR-3 ovarian
786-0 renal = tested on: 786-0 renal
COLO 205 colon = tested on: COLO 205 colon
TK-10 renal = tested on: TK-10 renal
CCRF-CEM leukemia = tested on: CCRF-CEM leukemia
MDA-MB-231 breast = tested on: MDA-MB-231 breast
SK-OV-3 ovarian = tested on: SK-OV-3 ovarian
RXF 393 renal = tested on: RXF 393 renal
HCT-116 colon = tested on: HCT-116 colon
OVCAR-4 ovarian = tested on: OVCAR-4 ovarian
PC-3 prostate = tested on: PC-3 prostate
SK-MEL-5 melanoma = tested on: SK-MEL-5 melanoma
HOP-92 NSCLC = tested on: HOP-92 NSCLC
HS 578T breast = tested on: HS 578T breast
SK-MEL-28 melanoma = tested on: SK-MEL-28 melanoma
IGROV1 ovarian = tested on: IGROV1 ovarian
DU-145 prostate = tested on: DU-145 prostate
HL-60(TB) leukemia = tested on: HL-60(TB) leukemia
NCI-H522 lung = tested on: NCI-H522 lung
SNB-75 CNS = tested on: SNB-75 CNS
KM12 colon = tested on: KM12 colon
UACC-62 melanoma = tested on: UACC-62 melanoma
NCI-H226 lung = tested on: NCI-H226 lung
A498 renal = tested on: A498 renal
SR leukemia = tested on: SR leukemia
MALME-3M melanoma = tested on: MALME-3M melanoma
K-562 leukemia = tested on: K-562 leukemia
RPMI-8226 leukemia = tested on: RPMI-8226 leukemia

Measured: TGI

CC1=CC(=O)/C(=C/n2c(=S)[nH]c3cc(C)ccc32)C(=O)O1
not listed: A498 renal | SR leukemia | MALME-3M melanoma | K-562 leukemia | RPMI-8226 leukemia
> 100 µM: all other assays above

CCOC1NC(/N=C/c2ccc(OC)cc2)=C(C#N)C1C#N (centres undefined)
47.8 µM: NCI-H522 lung
73.5 µM: BT-549 breast
82.2 µM: CCRF-CEM leukemia
not listed: HOP-92 NSCLC | SNB-75 CNS
> 100 µM: all other assays above

From PubChem BioAssay (NCI)
